Assay results taken from patent US20100292231A1, “Indazole Compounds for Treating Inflammatory Disorders, Demyelinating Disorders and Cancers” (priority 2007, published 2010).
Where two headings read alike, the source gives them in different places.

Legend:
Test in all cases: SelectScreen kinase specificity survey
Format in all cases: biochemical
ABL1 = molecular target: T1, ABL1 (Homo sapiens, UniProt P00519); settings: estimated, abridged dose response curve, read-out: Kinase inhibitory activity EC50
T1 construct: purchased Invitrogen (SelectScreen platform)
Procedure: (§1) Testing of the compounds described in this invention was carried out using the SelectScreen™ platform from Invitrogen, Inc. (Carlsbad. Calif., USA) and the details of its performance are readily viewed via the web by linking to: http://www.invitrogen.com/downloads/SelectScrn_Brochure.pdf.
(§2) Briefly, the approach is based on treating each specific kinase with a unique substrate and optical reporter system in the presence of ATP at 100 micromolar. In controls, the substrate is phosphorylated and a baseline optimal response is recorded.
(§3) The compounds were then re-tested by adding graded amounts of putative inhibitor which were added in 5 separate increments to generate a dose response curve. The latter is obtained by fitting to a 4 parameter Hill equation, a sigmoid saturation equation.
(§4) The same assay system described in Example 2 can be applied in the determination of kinase specificity. It is well understood by medicinal chemists in the development of kinase inhibitors that the resulting molecules often lack specificity. Not only are homologous kinases inhibited by the same class of compounds, but also non-homologous kinases can be affected by allosteric, induced, activated vs inactivated conformation, and protein folding interactions with the putative inhibitor, which otherwise had been designed to be specific. These off target effects are difficult to predict and can only be ruled in or out by empirically surveying a large set of kinases. It is also understood that changes to scaffolds and variation in their chemical decorations may influence the extent of promiscuity in the patterns of kinase inhibition across kinase classes.
(§5) The following experiment was conducted to address this issue. The indazole compound (IV), described in Example 2 and representative of the new genus was tested along with Symadex against a panel of 230 kinases representative of all known kinases classes. Included in the survey were the Flt3, its mutant, and close relatives in the Class III receptor tyrosine kinase class, together with serine-threonine kinases and atypical kinases many of which share no homology of active site with Flt3 as shown, for example, in the respective “genecard” for each kinase and available for inspection at on the web at http://www.genecards.org/.
(§6) Table 3 lists the estimated EC50 values from an abridged dose response curve for Symadex (C-1311) and CF-123. The kinases are listed alphabetically by Group and Family.

ADRBK1 (BARK1, GRK2) = molecular target: T2, ADRBK1 (BARK1, GRK2) (Homo sapiens, UniProt P25098)
T2 construct: purchased Invitrogen (SelectScreen platform)
Procedure: as §1, §2, §3, §4, §5, §6

AKT1 (PKB alpha) = molecular target: T3, AKT1 (PKB alpha) (Homo sapiens, UniProt P31749); settings: estimated, abridged dose response curve, read-out: Kinase inhibitory activity EC50
T3 construct: purchased Invitrogen (SelectScreen platform)
Procedure: as §1, §2, §3, §4, §5, §6

ALK = molecular target: T4, ALK (Homo sapiens, UniProt Q9UM73); settings: estimated, abridged dose response curve, read-out: Kinase inhibitory activity EC50
T4 construct: purchased Invitrogen (SelectScreen platform)
Procedure: as §1, §2, §3, §4, §5, §6

AMPK A2/B1/G1 = molecular target: T5, AMPK A2/B1/G1 (Homo sapiens, UniProt P54619+P54646+Q9Y478); settings: estimated, abridged dose response curve, read-out: Kinase inhibitory activity EC50
T5 construct: purchased Invitrogen, Inc. (SelectScreen platform)
Procedure: as §1, §2, §3, §4, §5, §6

CDK1/cyclin B (CDC2) = molecular target: T6, CDK1/cyclin B (CDC2) (Homo sapiens, UniProt P06493); settings: estimated, abridged dose response curve, read-out: Kinase inhibitory activity EC50
T6 construct: purchased Invitrogen (SelectScreen platform)
Procedure: as §1, §2, §3, §4, §5, §6

CDK2/cyclin A = molecular target: T7, CDK2/cyclin A (Homo sapiens, UniProt P24941); settings: estimated, abridged dose response curve, read-out: Kinase inhibitory activity EC50
T7 construct: purchased Invitrogen (SelectScreen platform)
Procedure: as §1, §2, §3, §4, §5, §6

CSF1R (FMS) = molecular target: T8, CSF1R (FMS) (Homo sapiens, UniProt P07333); settings: estimated, abridged dose response curve, read-out: Kinase inhibitory activity EC50
T8 construct: purchased Invitrogen (SelectScreen platform)
Procedure: as §1, §2, §3, §4, §5, §6

DYRK1B = molecular target: T9, DYRK1B (Homo sapiens, UniProt Q9Y463); settings: estimated, abridged dose response curve, read-out: Kinase inhibitory activity EC50
T9 construct: purchased Invitrogen (SelectScreen platform)
Procedure: as §1, §2, §3, §4, §5, §6

EGFR (ErbB1) = molecular target: T10, EGFR (ErbB1) (Homo sapiens, UniProt P00533); settings: estimated, abridged dose response curve, read-out: Kinase inhibitory activity EC50
T10 construct: purchased Invitrogen (SelectScreen service)
Procedure: as §1, §2, §3, §4, §5, §6

EPHA5 = molecular target: T11, EPHA5 (Homo sapiens, UniProt P54756); settings: estimated, abridged dose response curve, read-out: Kinase inhibitory activity EC50
T11 construct: purchased Invitrogen (SelectScreen service)
Procedure: as §1, §2, §3, §4, §5, §6

GRK4 = molecular target: T12, GRK4 (Homo sapiens, UniProt P32298)
T12 construct: purchased Invitrogen (SelectScreen platform)
Procedure: as §1, §2, §3, §4, §5, §6

GRK6 = molecular target: T13, GRK6 (Homo sapiens, UniProt P43250)
T13 construct: purchased Invitrogen (SelectScreen platform)
Procedure: as §1, §2, §3, §4, §5, §6

LYN B = molecular target: T14, LYN B (Homo sapiens, UniProt P07948); settings: estimated, abridged dose response curve, read-out: Kinase inhibitory activity EC50
T14 construct: purchased Invitrogen (SelectScreen)
Procedure: as §1, §2, §3, §4, §5, §6

MAP4K2 (GCK) = molecular target: T15, MAP4K2 (GCK) (Homo sapiens, UniProt Q12851); settings: estimated, abridged dose response curve, read-out: Kinase inhibitory activity EC50
T15 construct: purchased Invitrogen, Inc. (SelectScreen service)
Procedure: as §1, §2, §3, §4, §5, §6

MERTK (cMER) = molecular target: T16, MERTK (cMER) (Homo sapiens, UniProt Q12866); settings: estimated, abridged dose response curve, read-out: Kinase inhibitory activity EC50
T16 construct: purchased Invitrogen (SelectScreen service)
Procedure: as §1, §2, §3, §4, §5, §6

NEK6 = molecular target: T17, NEK6 (Homo sapiens, UniProt Q9HC98); settings: estimated, abridged dose response curve, read-out: Kinase inhibitory activity EC50
T17 construct: purchased Invitrogen, Inc. (SelectScreen service)
Procedure: as §1, §2, §3, §4, §5, §6

NEK9 = molecular target: T18, NEK9 (Homo sapiens, UniProt Q8TD19); settings: estimated, abridged dose response curve, read-out: Kinase inhibitory activity EC50
T18 construct: purchased Invitrogen, Inc. (SelectScreen service)
Procedure: as §1, §2, §3, §4, §5, §6

PDGFRA V561D = molecular target: T19, PDGFRA V561D (Homo sapiens, UniProt P16234, V561D); settings: estimated, abridged dose response curve, read-out: Kinase inhibitory activity EC50
T19 construct: purchased Invitrogen (SelectScreen platform)
Procedure: as §1, §2, §3, §4, §5, §6

PRKCH (PKC eta) = molecular target: T20, PRKCH (PKC eta) (Homo sapiens, UniProt P24723); settings: estimated, abridged dose response curve, read-out: Kinase inhibitory activity EC50
T20 construct: purchased Invitrogen, Inc. (SelectScreen platform)
Procedure: as §1, §2, §3, §4, §5, §6

PRKG1 (PKG1) = molecular target: T21, PRKG1 (PKG1) (Homo sapiens, UniProt Q13976); settings: estimated, abridged dose response curve, read-out: Kinase inhibitory activity EC50
T21 construct: purchased Invitrogen, Inc. (SelectScreen platform)
Procedure: as §1, §2, §3, §4, §5, §6

ROS1 (ROS) = molecular target: T22, ROS1 (ROS) (Homo sapiens, UniProt P08922); settings: estimated, abridged dose response curve, read-out: Kinase inhibitory activity EC50
T22 construct: purchased Invitrogen (SelectScreen)
Procedure: as §1, §2, §3, §4, §5, §6

RPS6KA1 (RSK1) = molecular target: T23, RPS6KA1 (RSK1) (Homo sapiens, UniProt Q15418); settings: estimated, abridged dose response curve, read-out: Kinase inhibitory activity EC50
T23 construct: purchased Invitrogen, Inc. (SelectScreen platform)
Procedure: as §1, §2, §3, §4, §5, §6

RPS6KA4 (MSK2) = molecular target: T24, RPS6KA4 (MSK2) (Homo sapiens, UniProt O75676); settings: estimated, abridged dose response curve, read-out: Kinase inhibitory activity EC50
T24 construct: purchased Invitrogen, Inc. (SelectScreen platform)
Procedure: as §1, §2, §3, §4, §5, §6

STK3 (MST2) = molecular target: T25, STK3 (MST2) (Homo sapiens, UniProt Q13188); settings: estimated, abridged dose response curve, read-out: Kinase inhibitory activity EC50
T25 construct: purchased Invitrogen (SelectScreen platform)
Procedure: as §1, §2, §3, §4, §5, §6

TBK1 = molecular target: T26, TBK1 (Homo sapiens, UniProt Q9UHD2); settings: estimated, abridged dose response curve, read-out: Kinase inhibitory activity EC50
T26 construct: purchased Invitrogen, Inc. (SelectScreen service)
Procedure: as §1, §2, §3, §4, §5, §6

T8 sequence (P07333 20-972): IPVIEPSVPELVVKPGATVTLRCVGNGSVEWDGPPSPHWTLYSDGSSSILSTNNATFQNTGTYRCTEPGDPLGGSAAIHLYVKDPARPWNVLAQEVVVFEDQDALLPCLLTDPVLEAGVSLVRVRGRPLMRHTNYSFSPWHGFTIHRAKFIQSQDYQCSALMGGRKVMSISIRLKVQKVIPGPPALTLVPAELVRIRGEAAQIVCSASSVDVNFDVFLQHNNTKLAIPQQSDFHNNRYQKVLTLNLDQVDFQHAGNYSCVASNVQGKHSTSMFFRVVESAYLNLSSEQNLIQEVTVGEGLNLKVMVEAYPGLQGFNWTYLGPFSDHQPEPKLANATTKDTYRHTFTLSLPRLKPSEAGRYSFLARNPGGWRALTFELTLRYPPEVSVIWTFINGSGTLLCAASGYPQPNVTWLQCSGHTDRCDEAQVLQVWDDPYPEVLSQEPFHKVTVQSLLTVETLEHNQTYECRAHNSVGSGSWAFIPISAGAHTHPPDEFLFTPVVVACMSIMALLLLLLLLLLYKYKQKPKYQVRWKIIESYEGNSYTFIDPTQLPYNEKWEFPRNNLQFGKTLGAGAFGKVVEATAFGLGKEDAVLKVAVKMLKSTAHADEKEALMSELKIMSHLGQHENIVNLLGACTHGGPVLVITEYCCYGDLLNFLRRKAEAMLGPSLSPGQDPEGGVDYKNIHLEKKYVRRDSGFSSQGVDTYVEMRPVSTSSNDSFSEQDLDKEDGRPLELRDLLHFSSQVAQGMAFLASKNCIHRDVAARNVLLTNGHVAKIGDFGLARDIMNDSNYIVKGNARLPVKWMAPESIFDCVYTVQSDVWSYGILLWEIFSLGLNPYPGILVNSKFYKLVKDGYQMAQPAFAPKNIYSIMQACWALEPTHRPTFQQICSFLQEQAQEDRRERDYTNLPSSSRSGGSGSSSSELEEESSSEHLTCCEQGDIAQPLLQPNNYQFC
T10 sequence (P00533 25-1210): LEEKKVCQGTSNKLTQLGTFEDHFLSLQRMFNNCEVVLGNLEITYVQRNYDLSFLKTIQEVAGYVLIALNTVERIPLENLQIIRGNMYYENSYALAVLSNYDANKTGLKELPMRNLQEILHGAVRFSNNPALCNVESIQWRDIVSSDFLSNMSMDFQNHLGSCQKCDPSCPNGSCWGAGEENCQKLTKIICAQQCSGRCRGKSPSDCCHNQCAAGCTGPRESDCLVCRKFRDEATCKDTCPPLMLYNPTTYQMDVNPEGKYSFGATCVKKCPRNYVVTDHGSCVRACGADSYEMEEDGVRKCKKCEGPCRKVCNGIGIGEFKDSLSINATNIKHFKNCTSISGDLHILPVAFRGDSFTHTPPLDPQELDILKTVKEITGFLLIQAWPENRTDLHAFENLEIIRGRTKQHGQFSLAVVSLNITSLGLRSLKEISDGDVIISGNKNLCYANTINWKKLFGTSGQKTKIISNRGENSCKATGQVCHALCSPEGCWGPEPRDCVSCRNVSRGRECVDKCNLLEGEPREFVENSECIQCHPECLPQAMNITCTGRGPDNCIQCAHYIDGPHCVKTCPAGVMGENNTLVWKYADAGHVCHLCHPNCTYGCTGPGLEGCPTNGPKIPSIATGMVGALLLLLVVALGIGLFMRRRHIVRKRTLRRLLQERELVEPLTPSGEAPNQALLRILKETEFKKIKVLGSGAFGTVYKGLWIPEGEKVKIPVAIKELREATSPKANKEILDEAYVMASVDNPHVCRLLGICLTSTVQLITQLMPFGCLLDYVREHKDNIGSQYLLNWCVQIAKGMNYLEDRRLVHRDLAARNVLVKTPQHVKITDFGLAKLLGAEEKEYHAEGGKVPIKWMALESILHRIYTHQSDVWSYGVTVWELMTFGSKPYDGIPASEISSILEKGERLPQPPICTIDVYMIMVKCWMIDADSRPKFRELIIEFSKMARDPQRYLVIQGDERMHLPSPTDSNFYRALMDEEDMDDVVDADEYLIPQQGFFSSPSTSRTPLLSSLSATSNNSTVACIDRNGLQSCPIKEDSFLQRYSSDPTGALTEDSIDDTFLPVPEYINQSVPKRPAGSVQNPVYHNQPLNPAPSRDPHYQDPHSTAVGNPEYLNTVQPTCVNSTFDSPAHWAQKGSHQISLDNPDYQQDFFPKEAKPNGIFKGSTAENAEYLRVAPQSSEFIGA
T24 sequence (O75676 whole entry): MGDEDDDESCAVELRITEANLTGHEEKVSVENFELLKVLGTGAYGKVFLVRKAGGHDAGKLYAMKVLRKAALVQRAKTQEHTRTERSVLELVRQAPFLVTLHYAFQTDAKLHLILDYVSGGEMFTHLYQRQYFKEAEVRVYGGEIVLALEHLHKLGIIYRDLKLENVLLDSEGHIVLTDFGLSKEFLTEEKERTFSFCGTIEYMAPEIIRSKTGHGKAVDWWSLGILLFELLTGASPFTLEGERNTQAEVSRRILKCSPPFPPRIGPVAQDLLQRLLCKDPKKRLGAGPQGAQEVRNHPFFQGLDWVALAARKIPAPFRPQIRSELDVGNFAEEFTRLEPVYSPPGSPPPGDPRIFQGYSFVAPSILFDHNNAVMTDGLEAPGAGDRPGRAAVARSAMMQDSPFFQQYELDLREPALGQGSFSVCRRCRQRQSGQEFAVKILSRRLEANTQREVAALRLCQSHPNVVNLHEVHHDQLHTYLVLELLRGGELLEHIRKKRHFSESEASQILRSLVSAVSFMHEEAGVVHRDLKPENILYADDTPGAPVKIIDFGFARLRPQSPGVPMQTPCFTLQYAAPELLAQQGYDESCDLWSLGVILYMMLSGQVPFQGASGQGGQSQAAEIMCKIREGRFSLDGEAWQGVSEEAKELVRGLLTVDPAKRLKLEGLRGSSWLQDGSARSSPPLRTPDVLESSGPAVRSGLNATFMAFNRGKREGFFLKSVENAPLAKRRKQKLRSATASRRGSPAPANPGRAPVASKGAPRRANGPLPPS
T5 sequence (P54646 whole entry): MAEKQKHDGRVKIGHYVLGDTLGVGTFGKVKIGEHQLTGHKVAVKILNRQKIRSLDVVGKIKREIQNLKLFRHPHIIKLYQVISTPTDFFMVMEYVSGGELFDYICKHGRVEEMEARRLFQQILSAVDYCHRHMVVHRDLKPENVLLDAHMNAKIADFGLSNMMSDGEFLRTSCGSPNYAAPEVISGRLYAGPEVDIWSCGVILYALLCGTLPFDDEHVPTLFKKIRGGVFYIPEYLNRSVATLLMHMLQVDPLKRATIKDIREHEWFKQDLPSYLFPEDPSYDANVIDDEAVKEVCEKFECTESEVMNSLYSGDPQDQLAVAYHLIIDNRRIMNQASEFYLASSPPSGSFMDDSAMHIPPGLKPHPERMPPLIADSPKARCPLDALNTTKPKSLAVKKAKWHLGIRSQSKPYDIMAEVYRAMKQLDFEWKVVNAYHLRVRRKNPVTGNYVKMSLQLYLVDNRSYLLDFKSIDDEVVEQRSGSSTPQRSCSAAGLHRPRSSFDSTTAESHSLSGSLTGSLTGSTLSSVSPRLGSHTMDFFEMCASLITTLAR
T5 sequence (Q9Y478 whole entry partner): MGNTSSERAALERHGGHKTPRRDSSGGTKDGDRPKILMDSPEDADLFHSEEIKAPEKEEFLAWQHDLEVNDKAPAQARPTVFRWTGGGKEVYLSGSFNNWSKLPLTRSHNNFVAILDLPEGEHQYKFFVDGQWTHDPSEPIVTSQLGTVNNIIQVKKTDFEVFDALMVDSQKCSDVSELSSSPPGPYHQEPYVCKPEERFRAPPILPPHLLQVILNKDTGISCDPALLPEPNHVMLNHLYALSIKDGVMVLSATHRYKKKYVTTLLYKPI
T5 sequence (P54619 whole entry partner): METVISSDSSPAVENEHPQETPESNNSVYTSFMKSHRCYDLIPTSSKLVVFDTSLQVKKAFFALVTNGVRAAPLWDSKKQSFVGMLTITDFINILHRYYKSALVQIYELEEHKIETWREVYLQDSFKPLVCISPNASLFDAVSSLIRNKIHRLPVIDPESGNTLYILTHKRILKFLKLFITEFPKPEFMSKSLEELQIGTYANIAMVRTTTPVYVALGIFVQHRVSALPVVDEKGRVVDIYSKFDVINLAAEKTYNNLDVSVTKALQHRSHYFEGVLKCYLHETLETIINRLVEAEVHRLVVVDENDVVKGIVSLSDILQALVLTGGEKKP
T12 sequence (P32298 whole entry): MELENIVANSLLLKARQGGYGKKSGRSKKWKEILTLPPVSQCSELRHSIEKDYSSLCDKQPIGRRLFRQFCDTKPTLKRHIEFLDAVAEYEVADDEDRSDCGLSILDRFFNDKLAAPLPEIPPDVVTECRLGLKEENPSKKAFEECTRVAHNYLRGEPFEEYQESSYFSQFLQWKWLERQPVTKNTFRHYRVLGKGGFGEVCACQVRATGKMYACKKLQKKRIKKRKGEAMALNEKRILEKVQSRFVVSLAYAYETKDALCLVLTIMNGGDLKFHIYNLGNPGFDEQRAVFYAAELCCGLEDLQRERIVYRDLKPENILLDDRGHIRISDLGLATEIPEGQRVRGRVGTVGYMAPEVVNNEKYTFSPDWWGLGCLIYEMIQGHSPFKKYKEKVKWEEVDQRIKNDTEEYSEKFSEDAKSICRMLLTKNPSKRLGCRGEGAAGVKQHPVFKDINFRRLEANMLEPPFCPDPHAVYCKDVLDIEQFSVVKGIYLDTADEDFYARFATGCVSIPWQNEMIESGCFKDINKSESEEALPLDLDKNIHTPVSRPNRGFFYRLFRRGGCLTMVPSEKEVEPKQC
T17 sequence (Q9HC98 whole entry): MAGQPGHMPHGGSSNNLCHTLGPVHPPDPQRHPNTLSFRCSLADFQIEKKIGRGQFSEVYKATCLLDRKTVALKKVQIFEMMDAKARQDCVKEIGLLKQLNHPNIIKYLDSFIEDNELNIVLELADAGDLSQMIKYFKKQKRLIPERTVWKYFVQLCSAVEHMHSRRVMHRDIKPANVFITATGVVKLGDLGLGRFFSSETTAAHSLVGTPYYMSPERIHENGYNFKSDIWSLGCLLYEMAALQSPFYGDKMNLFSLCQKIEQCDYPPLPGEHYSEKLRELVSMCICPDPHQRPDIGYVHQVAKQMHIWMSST

| SMILES | EC50 (ABL1) | EC50 (AKT1 (PKB alpha)) | EC50 (ALK) | EC50 (AMPK A2/B1/G1) | EC50 (CDK1/cyclin B (CDC2)) | EC50 (CDK2/cyclin A) | EC50 (CSF1R (FMS)) | EC50 (DYRK1B) | EC50 (EGFR (ErbB1)) | EC50 (EPHA5) | EC50 (LYN B) | EC50 (MAP4K2 (GCK)) | EC50 (MERTK (cMER)) | EC50 (NEK6) | EC50 (NEK9) | EC50 (PDGFRA V561D) | EC50 (PRKCH (PKC eta)) | EC50 (PRKG1 (PKG1)) | EC50 (ROS1 (ROS)) | EC50 (RPS6KA1 (RSK1)) | other results |
| --- | --- | --- | --- | --- | --- | --- | --- | --- | --- | --- | --- | --- | --- | --- | --- | --- | --- | --- | --- | --- | --- |
| CN(C)CCCNc1ccc2ncn3c4ccc5[nH]ncc5c4c(=O)c1c23 [Compound (IV)] | 3.78 µM | > 5 µM | 4.63 µM | 1.57 µM | 3.95 µM | 0.822 µM | 0.205 µM | 0.82 µM | > 5 µM | > 5 µM | 0.426 µM | > 5 µM | > 5 µM | > 5 µM | 2.93 µM | 0.06 µM | 2.13 µM | > 5 µM | 2.66 µM | 1.74 µM | EC50 (ADRBK1 (BARK1, GRK2); ADRBK1 (BARK1, GRK2), estimated, abridged dose response curve, read-out: Kinase inhibitory activity EC50): > 5 µM; EC50 (GRK4; GRK4, estimated, abridged dose response curve, read-out: Kinase inhibitory activity EC50): > 5 µM; EC50 (GRK6; GRK6, estimated, abridged dose response curve, read-out: Kinase inhibitory activity EC50): > 5 µM; EC50 (RPS6KA4 (MSK2)): > 5 µM; EC50 (STK3 (MST2)): > 5 µM; EC50 (TBK1): > 5 µM |
| CCN(CC)CCNc1ccc2ncn3c4ccc(O)cc4c(=O)c1c23 [Symadex, 5-(2-(diethylamino)ethylamino)-8-hydroxy-6H-imidazo[4,5,1-de]acridin-6-one, reference compound] | > 5 µM | > 5 µM | 2.48 µM | 1.79 µM | > 5 µM | > 5 µM | 0.428 µM | 0.991 µM | > 5 µM | > 5 µM | 0.812 µM | 4.93 µM | 3.6 µM | > 5 µM | > 5 µM | 0.083 µM | > 5 µM | > 5 µM | > 5 µM | 2.07 µM | EC50 (ADRBK1 (BARK1, GRK2)): > 5 µM; EC50 (GRK4): > 5 µM; EC50 (GRK6): > 5 µM; EC50 (RPS6KA4 (MSK2)): > 5 µM; EC50 (STK3 (MST2)): > 5 µM; EC50 (TBK1): > 5 µM |
